Experimental data published in patent publication US8518928B2, “Therapeutic compounds” (Rutgers, The State University of New Jersey, priority 2006, dated 2013).
Where a name gives a salt, the structure may show the parent alone.

How the values were obtained:
[1] = test system: SK-N-AS; details: human neuroblastoma cell line SK-N-AS; read-out: cytotoxicity IC50; cited from earlier work
[2] = test system: LAN5; details: human neuroblastoma cell line LAN5; read-out: cytotoxicity IC50; cited from earlier work
[3] = test system: WAC2; details: human neuroblastoma cell line WAC2; read-out: cytotoxicity IC50; cited from earlier work
[4] = test system: LAN1; details: human neuroblastoma cell line LAN1; read-out: cytotoxicity IC50; cited from earlier work
[5] = test system: MiaPaCa; details: human pancreatic carcinoma MiaPaCa; read-out: cytotoxicity IC50; cited from earlier work
[6] = test system: bone marrow CD34-positive cells; details: cited from earlier work

melting point | SMILES | IC50 [1] | IC50 [2] | IC50 [3] | IC50 [4] | IC50 [5] | effect on BFU-E and CFU-GM [6]
297 to 300 °C | CC(C)C1NC(=O)c2coc(n2)-c2coc(n2)-c2coc(n2)C(CCCCN)NC(=O)c2coc(n2)-c2coc(n2)-c2coc1n2 (stereo not shown) (as salt: TFA) [Compound 15, Cyclic Lysine-Valine Amine TFA Salt] | – | – | – | – | – | –
– | Cc1oc2nc1-c1nc(co1)-c1nc(co1)-c1nc(co1)-c1nc(co1)-c1nc(co1)C1=NC(CS1)c1nc-2c(C)o1 (stereo not shown) [Telomestatin] | 0.8 µM | 2.5 µM | 3.2 µM | 4 µM | 0.5 µM | much lesser effect
